Assay results published in US9095505B2, “Pyrethroids for treatment of ocular movement disorders” (RBG Group, LTD., priority 2013, dated 2015).
“Also recorded” adds a separate entry of the source.

Test system: canine subjects
Test: Eye movement recording of nystagmus in canine subjects (amplitude, NAFX)
Assay type: in vivo
Description: Eye movements were recorded using an EyeLink 1000 remote video recording system, with a sampling rate of 500-1000 Hz.
Efficacy was assessed by video-based eye tracking system wherein eye movement recordings of nystagmus and determination of Nystagmus Acuity Function (NAF, NAFX or eNAFX) was calculated from position and velocity data obtained from calibrated eye movement recordings. Techniques used to collect such data include a scleral search coil, non-contact infrared oculography, video pupillography and electroculography.
Nystagmus Acuity Function—NAF is a derived function that predicts the best-corrected visual acuity possible in subjects with nystagmus. NAF is based upon objective measurements of a subject's waveform characteristics during fixation of a small light-emitting diode and combines the foveation time per cycle and the standard deviations of both eye position and velocity during target foveation into a function that is linearly proportional to best-possible visual acuity.
Evaluation of the nystagmus acuity function (NAF, NAFX, eNAFX) is often used to evaluate the quality of the nystagmus cycle and/or quantify the effect of surgical or pharmaceutical intervention on the nystagmus waveform. […]
Amplitude—The amplitude of nystagmus was measured directly from calibrated eye movement recordings in degrees. […]

CC1(C)C(/C=C(\Cl)C(F)(F)F)C1C(=O)OC(C#N)c1cccc(Oc2ccccc2)c1 [LC, (R)-cyano(3-phenoxyphenyl)methyl(1S,3S)-rel-3-[(1Z)-2-chloro-3,3,3-trifluoro-1-propenyl]-2,2-dimethylcyclopropanecarboxylate]
high frequency (9-11) Hz pendular oscillation in eye position recording (after two doses of 0.6% topical eye drop, compared to Pre Drop recording of FIG. 1): less amplitude as compared to the Pre Drop eye movement recording; also recorded: only present only in extreme gaze
effect on nystagmus (after two doses of 0.6% w/w formulation): significant improvement of nystagmus
